Measured values: patent US7597692B2, “Microscission processes and procedures” (Massachusetts Institute of Technology, priority 2000, dated 2009)

Tested on: Subject B site (forearm microconduit)
Assay: Lidocaine applied on forearm microconduit site, anesthetic effect (Example 3)
Assay type: in vivo, human
Settings: 3% lidocaine applied on Subject B microconduit site

In the case of `CCN(CC)CC(=O)Nc1c(C)cccc1C` [lidocaine], the anesthetic effects is reported as “No discernible anesthetic effects were observed”.
